Data on five molecules can be found in patent US20100120063A1, “GPCR Arrestin Assays” (DISCOVERX CORPORATION, priority 2008, published 2010).

Assay type in all cases: cell-based
Assay [1] concerns the target T1, CHRM2 (Homo sapiens, UniProt P08172).
T1 construct: gly-ser flexible linker […]; expressed in transfected cells; host or cells: CHO
T1 sequence (P08172 1-466): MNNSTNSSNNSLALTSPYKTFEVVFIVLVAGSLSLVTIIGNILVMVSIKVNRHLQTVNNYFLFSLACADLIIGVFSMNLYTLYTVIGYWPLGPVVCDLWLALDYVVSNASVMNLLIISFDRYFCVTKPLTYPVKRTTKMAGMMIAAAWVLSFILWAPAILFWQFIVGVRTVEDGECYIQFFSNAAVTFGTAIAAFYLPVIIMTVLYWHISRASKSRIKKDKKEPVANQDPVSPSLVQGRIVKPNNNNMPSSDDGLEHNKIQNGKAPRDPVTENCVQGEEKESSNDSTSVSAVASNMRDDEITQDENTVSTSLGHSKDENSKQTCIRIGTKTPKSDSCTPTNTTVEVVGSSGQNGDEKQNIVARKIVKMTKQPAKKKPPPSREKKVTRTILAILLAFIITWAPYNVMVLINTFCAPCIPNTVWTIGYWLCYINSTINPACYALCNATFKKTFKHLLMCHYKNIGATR
The assay can be described thus: Arrestin-EA / GPCR-PK β-galactosidase EFC screening assay, CHRM2 fused to mutated ED (PK1). On the procedure:
(§1) To perform the screening assay, 20 μl of cells in complete media or serum-free media (OPTI-MEM® Invitrogen Cat. #31985-070) were plated at 5, 10 and 15×10^3 cells per well in a white 384 well microplate and incubated at 37° C. overnight. Cells are allowed to adhere and grown overnight. Cells may be screened for their response in serum free or complete medium. Serial dilutions are then performed in serum-free medium or buffer for a volume of 25 μl. Depending on the candidate compound, the dilution may occur in the presence of 0.1% BSA or ≦1% final concentration of an organic solvent, e.g., DMSO and methanol. 5 μl of each candidate compound is added per well. The assay mixture is then incubated for 90 min at 37° C. 12.5 μl of the detection reagent is then added. The detection reagent is prepared by combining 1 part Galacton Star Substrate® with 5 parts Emerald II® Solution and 19 parts Path-Hunter Cell Assay Buffer (lysis buffer). The assay mixture is then incubated for 1 h at room temperature. Chemiluminescence is then read at 1.0 sec/well on PMT based instrument or 5-20 sec on an imager.

Assay [2] has as its target T1, CHRM2. The assay can be described thus: Arrestin-EA / GPCR-PK EFC screening assay, CHO Arrestin + CHRM2-PK2 (wild-type ED). On the procedure: as §1
In assay [3] the target is T2, CCKAR-PK (Homo sapiens, UniProt P32238).
T2 construct: PK (beta-galactosidase ED); expressed in transfected cells; host or cells: HEK
T2 sequence (P32238 1-428): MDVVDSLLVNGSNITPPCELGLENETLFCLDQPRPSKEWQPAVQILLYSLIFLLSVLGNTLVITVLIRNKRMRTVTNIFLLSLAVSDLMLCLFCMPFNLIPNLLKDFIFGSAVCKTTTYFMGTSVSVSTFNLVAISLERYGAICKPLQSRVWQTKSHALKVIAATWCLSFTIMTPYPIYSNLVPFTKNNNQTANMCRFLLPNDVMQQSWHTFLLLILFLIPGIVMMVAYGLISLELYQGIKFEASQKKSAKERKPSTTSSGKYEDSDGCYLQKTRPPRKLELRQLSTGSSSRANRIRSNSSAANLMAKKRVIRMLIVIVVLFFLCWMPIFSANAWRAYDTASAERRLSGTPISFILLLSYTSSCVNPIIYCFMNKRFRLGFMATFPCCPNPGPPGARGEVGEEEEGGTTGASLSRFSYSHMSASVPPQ
Nature of the assay: Arrestin-EA binding to CCKAR-PK in HEK cell line (FIG. 10B, 10D).
Description: (§2) For all assays, 10,000 cells per well were seeded in 20 μL media and incubated overnight in 1% Fetal Bovine Serum and appropriate basal media (F-12 or DMEM). For agonist assays, 5 μL compound was added to cells and incubated at Room Temp. For antagonist assays, 5 μL 5× compound was added to cells and incubated at 37° C./5% CO2 for 10 minutes, after which 5 μL 6× agonist was added and incubated for 60 minutes at 37° C. Arrestin-EA complex formation with the GPCR was detected with 50% (v/v) of PathHunter Detection Reagent (Dx 93-0001, PathHunter reagents are available from DiscoveRx, Corp., Fremont, Calif.) (Lysis buffer active ingredient 2% CHAPS, Emerald II and Galacton star are from Applied Biosystems.) Data was read on Packard Victor 2 or PerkinElmer ViewLux readers and analyzed using GraphPad Prism 4.

Assay [4] concerns the target T2, CCKAR-PK. The assay can be described thus: Calcium concentration in HEK cell line expressing CCKAR-PK and arrestin-EA (FIG. 10A, 10C).
A further assay has as its target T3, OPRM1-PK (Homo sapiens, UniProt P35372).
T3 construct: PK (beta-galactosidase ED); expressed in transfected cells; host or cells: U2OS
Nature of the assay: Arrestin-EA EFC agonist assay, U2OS cells expressing OPRM1-PK only.

The target in the next assay is T4, OPRD1-PK (Homo sapiens, UniProt P41143).
T4 construct: cloning junction ISFEL + gly-ser linker […]; PK1 (mutated ED, H to R); expressed in transfected cells; host or cells: CHO
Nature of the assay: Arrestin-EA EFC agonist assay, CHO cells expressing OPRD1-PK (FIG. 12A).

For another assay, the target named is T5, OPRD1-PK and OPRM1 (Homo sapiens, UniProt P35372).
T5 construct: expressed in transfected cells; host or cells: CHO
Nature of the assay: Transactivation assay, CHO cells co-expressing OPRD1-PK and OPRM1 (FIG. 12C).

Another assay has as its target T6, OPRM1-PK and CCR5 (Homo sapiens, UniProt P51681).
T6 construct: expressed in transfected cells; host or cells: U2OS
Nature of the assay: Transactivation assay, U2OS cells co-expressing OPRM1-PK and CCR5 (FIG. 13B). The conditions noted are these: CCR5 coexpressed with OPRM1-PK; FIG. 13 graph B.

Another assay concerns the target T7, OPRM1-PK and CCR2 (Homo sapiens, UniProt P41597).
T7 construct: expressed in transfected cells; host or cells: U2OS
The assay can be described thus: Transactivation assay, U2OS cells co-expressing OPRM1-PK and CCR2 (FIG. 13A). The conditions noted are these: CCR2 coexpressed with OPRM1-PK; FIG. 13 graph A.

[5] abbreviates: curve fit, chemiluminescence signal, FIG. 4.
Setting [6] is: curve fit, signal, U2OS OPRM1-PK only.

T5 sequence (P35372 whole entry, species assumed): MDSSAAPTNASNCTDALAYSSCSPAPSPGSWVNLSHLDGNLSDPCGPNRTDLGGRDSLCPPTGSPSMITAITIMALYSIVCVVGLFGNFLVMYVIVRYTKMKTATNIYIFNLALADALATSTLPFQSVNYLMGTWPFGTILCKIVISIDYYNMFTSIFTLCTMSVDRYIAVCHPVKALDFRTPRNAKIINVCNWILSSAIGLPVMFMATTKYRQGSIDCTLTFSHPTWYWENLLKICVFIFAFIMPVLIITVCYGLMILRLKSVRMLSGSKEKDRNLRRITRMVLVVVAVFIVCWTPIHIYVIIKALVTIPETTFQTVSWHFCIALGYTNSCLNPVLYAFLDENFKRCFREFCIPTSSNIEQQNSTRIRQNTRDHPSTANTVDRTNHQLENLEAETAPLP
T3 sequence (P35372 whole entry): as the sequence (P35372 whole entry, species assumed) above
T6 sequence (P51681 whole entry, species assumed): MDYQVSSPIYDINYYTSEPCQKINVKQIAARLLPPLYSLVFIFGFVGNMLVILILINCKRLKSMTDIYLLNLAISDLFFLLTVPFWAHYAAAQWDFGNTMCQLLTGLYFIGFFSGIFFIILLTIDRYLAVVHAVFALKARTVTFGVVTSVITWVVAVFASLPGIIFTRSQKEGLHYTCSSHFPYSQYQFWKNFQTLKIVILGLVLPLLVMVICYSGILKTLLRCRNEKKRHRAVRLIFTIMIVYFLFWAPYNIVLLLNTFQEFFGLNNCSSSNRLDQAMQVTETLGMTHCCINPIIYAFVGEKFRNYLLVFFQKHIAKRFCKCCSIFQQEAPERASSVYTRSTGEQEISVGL
T7 sequence (P41597 whole entry, species assumed): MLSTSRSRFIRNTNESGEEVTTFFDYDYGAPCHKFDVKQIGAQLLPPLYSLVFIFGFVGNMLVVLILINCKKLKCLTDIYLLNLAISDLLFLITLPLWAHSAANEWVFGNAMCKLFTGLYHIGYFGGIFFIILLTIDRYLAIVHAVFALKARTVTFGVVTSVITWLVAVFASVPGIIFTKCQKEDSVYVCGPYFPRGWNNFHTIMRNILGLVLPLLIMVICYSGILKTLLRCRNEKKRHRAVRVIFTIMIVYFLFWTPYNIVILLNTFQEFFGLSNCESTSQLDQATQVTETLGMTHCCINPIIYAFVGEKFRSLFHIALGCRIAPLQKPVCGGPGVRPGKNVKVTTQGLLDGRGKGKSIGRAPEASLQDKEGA
Description for OPRD1-PK and OPRM1: (§3) For all assays, 10,000 cells per well were seeded in 20 μL media and incubated overnight in 1% Fetal Bovine Serum and appropriate basal media (F-12 or DMEM). For agonist assays, 5 μL compound was added to cells and incubated at Room Temp. […] Arrestin-EA complex formation with the GPCR was detected with 50% (v/v) of PathHunter Detection Reagent (Dx 93-0001, PathHunter reagents are available from DiscoveRx, Corp., Fremont, Calif.) (Lysis buffer active ingredient 2% CHAPS, Emerald II and Galacton star are from Applied Biosystems.) Data was read on Packard Victor 2 or PerkinElmer ViewLux readers and analyzed using GraphPad Prism 4.
Description for OPRM1-PK and CCR2: as §3
Description for OPRM1-PK and CCR5: as §2

For `O=C1CCCN1CC#CCN1CCCC1` [oxotremorine], the “response with PK1” value on CHRM2 [1] (CHRM2, FIG. 4) is given as “no response”. On CHRM2 [1] (CHRM2 fused to PK1, FIG. 1A), the “fold response with PK1” value was 1.4 fold. Further, the “S:B PK1” value at CHRM2 [1] (signal to background ratio, CHRM2 fused to PK1, FIG. 1A) worked out at 1.6. Besides, on CHRM2 [2] (FIG. 4), the EC50 was found to be 6.29 µM, the HILLSLOPE is on record as 1.183 and the “response with PK2” value was “robust response”. Besides, on CHRM2 [2] (setting [5]), the BOTTOM is on record as 335.9 and the TOP turned out to be 2037. For the same molecule, at CHRM2 [2] (signal to background ratio, CHRM2 fused to PK2, FIG. 1B), the “S:B PK2” value came out at 6.1.

For the molecule `C[N+](C)(C)CCOC(N)=O` [carbachol], the “effect on the binding of arrestin-EA to CCKAR-PK” value at CCKAR-PK [3] is “substantially no effect”. In addition, at CCKAR-PK [4], the “effect on calcium concentration” value is recorded as “some effect”.

Regarding `CC(C)C[C@@H](NC(=O)[C@H](Cc1ccccc1)NC(=O)CNC(=O)[C@@H](C)NC(=O)[C@@H](N)Cc1ccc(O)cc1)C(=O)O` [DADLE], on OPRM1-PK (U2OS OPRM1-PK only), the HILLSLOPE is given as 1.483. Besides, at OPRM1-PK (setting [6]), the BOTTOM was 625.6 and the TOP came out at 17070. The “S:B” value on OPRM1-PK (signal to background, U2OS OPRM1-PK only) was “[S:B = 32.7]”.

Consider `C[C@@H](NC(=O)[C@@H](N)Cc1ccc(O)cc1)C(=O)NCC(=O)N(C)[C@@H](Cc1ccccc1)C(=O)NCCO` [DAMAGO, [D-Ala2,N-Me-Phe4,Gly5-ol]-enkephalin], for which the HILLSLOPE is 1.293 on OPRD1-PK (FIG. 12A); 0.7069 at OPRM1-PK (U2OS OPRM1-PK only); 1.571 on OPRD1-PK and OPRM1 (FIG. 12C). Besides, the “response” value on OPRD1-PK (cells expressing only OPRD1-PK) is listed as “absence of response”. Moreover, the BOTTOM at OPRD1-PK (curve fit, signal, FIG. 12A) was found to be 519.8; at OPRD1-PK and OPRM1 (curve fit, signal, FIG. 12C), 20.31. The TOP at OPRD1-PK (curve fit, signal, FIG. 12A) is on record as 2809; at OPRM1-PK (setting [6]), 10875; at OPRD1-PK and OPRM1 (curve fit, signal, FIG. 12C) it was 201.4. Also, the “arrestin-EA binding response” value at OPRM1-PK (cells expressing only OPRM1-PK) is on record as “presence of response”. Moreover, on OPRD1-PK and OPRM1 (cells expressing OPRD1-PK and OPRM1), the “transactivation response” value was “lack of response”. For the same molecule, the “S:B” value on OPRD1-PK and OPRM1 (signal to background, FIG. 12C) is “[S:B = 31.9]”.

As to CCL3: ligand added to CCR5 cells, the “transactivation response” value with OPRM1-PK and CCR5 is “no response”; with OPRM1-PK and CCR2 it was “no response”.

By EC50 is commonly meant the concentration giving half of the maximal effect.
